ChEMBL document CHEMBL1201862, “PubChem BioAssay data set” (2004)
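Tested at 5 concentrations; 48 h exposure; 96-well plates; endpoints linearly interpolated, else capped at highest concentration. At the GI50, growth is halved.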 Active and inactive are the calls of the source. Cut-off read from the data, not from the text of the source: active = GI50 up to about 1.1 µM and inactive = higher.

Experiments:
Test in all cases: NCI tumour cell line growth inhibition, 48 h
NCI-H460 = tested on: NCI-H460
K562 = tested on: K562
EKVX = tested on: EKVX
LOX IMVI = tested on: LOX IMVI
COLO 205 = tested on: COLO 205
HT-29 = tested on: HT-29
A549 = tested on: A549
KM12 = tested on: KM12
HCC 2998 = tested on: HCC 2998
786-0 = tested on: 786-0
M14 = tested on: M14
Malme-3M = tested on: Malme-3M
PC-3 = tested on: PC-3
OVCAR-5 = tested on: OVCAR-5
UACC-62 = tested on: UACC-62
RXF 393 = tested on: RXF 393
T47D = tested on: T47D
Hs-578T = tested on: Hs-578T
HCT-116 = tested on: HCT-116
OVCAR-4 = tested on: OVCAR-4

| SMILES | GI50 (NCI-H460) | GI50 (K562) | GI50 (EKVX) | GI50 (LOX IMVI) | GI50 (COLO 205) | GI50 (HT-29) | GI50 (A549) | GI50 (KM12) | GI50 (HCC 2998) | GI50 (786-0) | GI50 (M14) | GI50 (Malme-3M) | GI50 (PC-3) | GI50 (OVCAR-5) | GI50 (UACC-62) | GI50 (RXF 393) | GI50 (T47D) | GI50 (Hs-578T) | GI50 (HCT-116) | GI50 (OVCAR-4) |
| --- | --- | --- | --- | --- | --- | --- | --- | --- | --- | --- | --- | --- | --- | --- | --- | --- | --- | --- | --- | --- |
| CCOC1=C(c2ccccc2)N2CCCCC2O1 (centres undefined) | 3.39 µM (inactive) | 2.03 µM (inactive) | 5.19 µM (inactive) | 3.77 µM (inactive) | 2.22 µM (inactive) | 2.99 µM (inactive) | 5.57 µM (inactive) | 3.27 µM (inactive) | 3.12 µM (inactive) | 4.55 µM (inactive) | 3.46 µM (inactive) | 5.7 µM (inactive) | 2.61 µM (inactive) | 3.94 µM (inactive) | 3.48 µM (inactive) | 7.89 µM (inactive) | 2.04 µM (inactive) | 6.12 µM (inactive) | 2.88 µM (inactive) |  |
| COCCOC(C)C(=O)C(O)S(=O)(=O)O (centres undefined) | > 100 µM (inactive) | > 100 µM (inactive) | > 100 µM (inactive) |  | > 100 µM (inactive) | > 100 µM (inactive) | > 100 µM (inactive) | > 100 µM (inactive) | > 100 µM (inactive) | > 100 µM (inactive) | > 100 µM (inactive) | > 100 µM (inactive) | > 100 µM (inactive) | > 100 µM (inactive) | > 100 µM (inactive) | > 100 µM (inactive) | > 100 µM (inactive) | > 100 µM (inactive) | > 100 µM (inactive) | > 100 µM (inactive) |
| Cc1ccc(S(=O)(=O)Oc2cc(N)c3c(n2)CCC3)cc1 | > 100 µM (inactive) | 67 µM (inactive) | 42.3 µM (inactive) | > 100 µM (inactive) | 53.5 µM (inactive) | 48.3 µM (inactive) | > 100 µM (inactive) | > 100 µM (inactive) | > 100 µM (inactive) | > 100 µM (inactive) | > 100 µM (inactive) |  | > 100 µM (inactive) | > 100 µM (inactive) | 97.5 µM (inactive) | > 100 µM (inactive) | 56.4 µM (inactive) | > 100 µM (inactive) | > 100 µM (inactive) | 34.4 µM (inactive) |
| COC(=O)C1C/C(=C/N(C)C)C(=S)N1 (centres undefined) | 11.6 µM (inactive) | > 100 µM (inactive) | > 100 µM (inactive) |  | > 100 µM (inactive) | > 100 µM (inactive) | > 100 µM (inactive) | > 100 µM (inactive) | > 100 µM (inactive) | > 100 µM (inactive) | > 100 µM (inactive) | > 100 µM (inactive) | > 100 µM (inactive) | > 100 µM (inactive) | > 100 µM (inactive) | > 100 µM (inactive) | > 100 µM (inactive) | > 100 µM (inactive) | > 100 µM (inactive) | > 100 µM (inactive) |
| COC1OC(Cc2nnc(C)o2)C(OCc2ccccc2)C(OCc2ccccc2)C1OCc1ccccc1 (centres undefined) | 26.4 µM (inactive) | 20.9 µM (inactive) | 12.7 µM (inactive) | 20.1 µM (inactive) | 20.7 µM (inactive) | 26.4 µM (inactive) | 27.2 µM (inactive) | 15.8 µM (inactive) |  | 40.6 µM (inactive) | 31 µM (inactive) | 15.5 µM (inactive) |  | 41.2 µM (inactive) | 17 µM (inactive) | 18.3 µM (inactive) | 52.5 µM (inactive) | 43 µM (inactive) | 37.4 µM (inactive) | 41.4 µM (inactive) |
| Nc1nc(SCC(=O)c2ccc(Br)cc2)c2nc[nH]c2n1 | 28.7 µM (inactive) | 18.1 µM (inactive) | 38.5 µM (inactive) | 31.4 µM (inactive) | 17 µM (inactive) | 44.6 µM (inactive) | 55 µM (inactive) | 44.8 µM (inactive) |  | 42.2 µM (inactive) | 40.5 µM (inactive) | 29.4 µM (inactive) | 34.2 µM (inactive) | 47.1 µM (inactive) | 37.7 µM (inactive) | 41.9 µM (inactive) | 25.8 µM (inactive) | 21.6 µM (inactive) | 31.2 µM (inactive) | 53.3 µM (inactive) |
| O=S(=O)(O)C(c1ccccc1)C(O)c1ccccc1 (centres undefined) | > 100 µM (inactive) | > 100 µM (inactive) | > 100 µM (inactive) | > 100 µM (inactive) | > 100 µM (inactive) | > 100 µM (inactive) | > 100 µM (inactive) | > 100 µM (inactive) |  | > 100 µM (inactive) | > 100 µM (inactive) | > 100 µM (inactive) | > 100 µM (inactive) | > 100 µM (inactive) | > 100 µM (inactive) | > 100 µM (inactive) | > 100 µM (inactive) | > 100 µM (inactive) | > 100 µM (inactive) | > 100 µM (inactive) |
| O=C1Nc2ccccc2/C1=N/NC(=S)NCc1ccccn1 | 0.172 µM (active) | < 0.01 µM (active) | 0.294 µM (active) | 0.371 µM (active) | < 0.01 µM (active) | 0.0462 µM (active) | 0.466 µM (active) | 0.698 µM (active) | 0.975 µM (active) | 0.355 µM (active) | 0.312 µM (active) | 2.29 µM (inactive) | 0.0508 µM (active) | 10.5 µM (inactive) | 0.341 µM (active) |  | 0.0343 µM (active) | 6.14 µM (inactive) | < 0.01 µM (active) | 1.33 µM (inactive) |
| CN1CCN(Cn2nc(COc3ccccc3Cl)n(/N=C/c3ccc(-c4ccc(Cl)cc4Cl)o3)c2=S)CC1 | 22.1 µM (inactive) | 21.3 µM (inactive) | 39.4 µM (inactive) | 33.4 µM (inactive) |  | 19.5 µM (inactive) |  | 19.7 µM (inactive) | 19.6 µM (inactive) | 18.6 µM (inactive) | 28.8 µM (inactive) |  | 23.8 µM (inactive) | 35.6 µM (inactive) |  | 17.3 µM (inactive) | 19.5 µM (inactive) | 84.1 µM (inactive) | 18.5 µM (inactive) | 20 µM (inactive) |
| COc1ccc(/C=C2\N=C3NC(=O)C(N4CCOCC4)=C(N)N3C2=O)cc1 |  | 6.7 µM (inactive) | 69.7 µM (inactive) | > 100 µM (inactive) | > 100 µM (inactive) | > 100 µM (inactive) | > 100 µM (inactive) | > 100 µM (inactive) | > 100 µM (inactive) | 53 µM (inactive) | > 100 µM (inactive) | > 100 µM (inactive) |  | > 100 µM (inactive) |  | 46.7 µM (inactive) | > 100 µM (inactive) | 35.7 µM (inactive) | > 100 µM (inactive) | 31.8 µM (inactive) |
| CCOC(=O)c1nc2ccccc2nc1NCc1ccc(Cl)cc1Cl | 35 µM (inactive) | > 100 µM (inactive) | > 100 µM (inactive) | > 100 µM (inactive) | > 100 µM (inactive) | > 100 µM (inactive) | > 100 µM (inactive) | > 100 µM (inactive) |  | > 100 µM (inactive) | > 100 µM (inactive) | > 100 µM (inactive) | > 100 µM (inactive) | > 100 µM (inactive) | > 100 µM (inactive) | > 100 µM (inactive) | > 100 µM (inactive) | 65.6 µM (inactive) | > 100 µM (inactive) | > 100 µM (inactive) |
| O=C1CSC(c2c[nH]c3ccccc23)N1c1cccc(Cl)c1 (centres undefined) | 37.6 µM (inactive) | 41 µM (inactive) | > 100 µM (inactive) |  | 50.7 µM (inactive) | 37.8 µM (inactive) | 56.1 µM (inactive) | 50.1 µM (inactive) | 54.3 µM (inactive) | 25.5 µM (inactive) | 49.1 µM (inactive) |  |  | 73.8 µM (inactive) | 45.8 µM (inactive) | > 100 µM (inactive) | > 100 µM (inactive) | 38.4 µM (inactive) | 29.5 µM (inactive) | 38 µM (inactive) |
| COc1ccc2c(c1C)C(=O)C(O)(CC=C(C)C)O2 (centres undefined) | > 100 µM (inactive) | > 100 µM (inactive) | > 100 µM (inactive) | > 100 µM (inactive) | > 100 µM (inactive) | > 100 µM (inactive) | > 100 µM (inactive) | > 100 µM (inactive) | > 100 µM (inactive) | > 100 µM (inactive) | > 100 µM (inactive) | > 100 µM (inactive) | 62.8 µM (inactive) | > 100 µM (inactive) | > 100 µM (inactive) |  | > 100 µM (inactive) | > 100 µM (inactive) | > 100 µM (inactive) |  |
| O=C(NCCCCCCO)c1cccc2cc3ccccc3nc12 | 16 µM (inactive) | 32.4 µM (inactive) | 16.7 µM (inactive) | 16.6 µM (inactive) | 11.7 µM (inactive) | 17.5 µM (inactive) | 15.5 µM (inactive) | 18.7 µM (inactive) |  | 13.8 µM (inactive) |  |  | 17 µM (inactive) | 18.6 µM (inactive) | 16.5 µM (inactive) | 17.2 µM (inactive) | 10.8 µM (inactive) | 25.8 µM (inactive) | 17.2 µM (inactive) | 18.9 µM (inactive) |
| COc1cc(Nc2nnc3n2S(=O)(=O)c2cc(C)c(Cl)cc2S3)cc(OC)c1 | 23.8 µM (inactive) | 13.2 µM (inactive) | 15.4 µM (inactive) |  | 13.2 µM (inactive) | 12.4 µM (inactive) | 6.62 µM (inactive) | 23.4 µM (inactive) | 6.18 µM (inactive) | 4.22 µM (inactive) | 59.3 µM (inactive) | 2.17 µM (inactive) | 8.83 µM (inactive) | 62.2 µM (inactive) | 18.1 µM (inactive) | 10.5 µM (inactive) | 8.22 µM (inactive) | 14.2 µM (inactive) | 14 µM (inactive) | 4.3 µM (inactive) |
